Source: patent US7842701B2, “Pyrazoloquinolone derivative and use thereof” (Takeda Pharmaceutical Company Limited, priority 2004, dated 2010)

Molecular target: T1, Src tyrosine kinase (p60^c-src) (Homo sapiens, UniProt P12931)
T1 construct: purchased Upstate Biotechnology, Inc
Test: Src tyrosine kinase inhibition (α-screen phosphotyrosine assay)
Type: biochemical
Conditions: 30 ng/ml p60^c-src, 100 ng/ml biotin-labeled poly(Glu:Tyr=4:1), 2 μM ATP, room temperature 10 minutes; value given only as order of magnitude; read-out: IC50 (concentration required for 50% inhibition of the enzyme activity)
Description: Inhibition activity of the test compound for Src tyrosine kinase was measured by the method described as below. p60^c-src (a preparation purified partically, purchased from Upstate Biotechnology, Inc.) was usded as an enzyme. A biotin-labeled polypeptide (co-polymer of glutamic acid and tyrosine, glutamic acid:tyrosine=4:1, purchased from Nihon Schering K. K. (Japan), prepared by CIS Bio International) was used as a substrate. A solution having composition of 50 mM Tris-HCl (pH 7.5), 5 mM of MgCl2, 5 mM of MnCl2, 2 mM of dithiothreitol, 0.01% of Tween-20 was used as a buffer solution for measuring the activity of tyrosine-kinase. The amount of phosphorylation of tyrosine in the substrate after the reaction was measured by the method using phosphotyrosine recognition antibody. In the concrete, α-screen phosphotyrosine (p-tyr-100) assay kit (manufactured by PerkinElmer, Inc.) was used. Fusion™ (manufactured by PerkinElmer, Inc.) was used as a plate reader. The test compound was dissolved in dimethylsulfoxide, and diluted with the above-mentioned buffer solution for measuring the activity of tyrosine-kinase. To 5 μl of the solution of test compound was added 10 μl of a buffer solution containing 75 ng/ml of the enzyme (p60 ^c-src) and 250 ng/ml of the substrate (biotin-labeled polypeptide), and then added 10 μl of a buffer solution containing 5 μM ATP, and then the tyrosine-kinase reaction was initiated. Accordingly the tyrosine-kinase reaction was meant by a kinase reaction in a solution containing the test compound having designated concentration, 30 ng/ml of p60^c-src, 100 ng/ml of polypeptide, 2 μM of ATP, 50 mM of Tris-HCl (pH 7.5), 5 mM of MgCl2, 5 mM of MnCl2, 2 mM of dithiothreitol and 0.01% of Tween-20, and the amount of the reaction liquid was 25 μl. After the reaction was continued at room temperature for 10 minutes, the kinase reaction was terminated by adding 25 μl of a solution containing 100 mM of EDTA-2 sodium salt (Ethylene Diamine Tetraacetic Acid, disodium salt), 62.5 mM of HEPES (pH 7.4), 250 mM of NaCl, 0.1% of Bovine Serum Albumin, 10 μg/ml of streptavidine donor beads for α-screen assay, 10 μg/ml of acceptor beads binding anti-phosphotyrosin recognition antibody PY-100 for α-screen assay (Anti-phosphotyrisine(P-Tyr-100) Acceptor beads), and then the binding reaction between phosphotyrosine recognition antibody and phosphorylating tyrosine was continued at room temperature for 16 hours, and then the amount of tyrosine phosphorylation was measured by using plate reader Fusion™.
Inhibition rate (%)=100-[(count of the test compound-blank)/(control-blank)]×100 […]

T1 sequence (P12931 whole entry): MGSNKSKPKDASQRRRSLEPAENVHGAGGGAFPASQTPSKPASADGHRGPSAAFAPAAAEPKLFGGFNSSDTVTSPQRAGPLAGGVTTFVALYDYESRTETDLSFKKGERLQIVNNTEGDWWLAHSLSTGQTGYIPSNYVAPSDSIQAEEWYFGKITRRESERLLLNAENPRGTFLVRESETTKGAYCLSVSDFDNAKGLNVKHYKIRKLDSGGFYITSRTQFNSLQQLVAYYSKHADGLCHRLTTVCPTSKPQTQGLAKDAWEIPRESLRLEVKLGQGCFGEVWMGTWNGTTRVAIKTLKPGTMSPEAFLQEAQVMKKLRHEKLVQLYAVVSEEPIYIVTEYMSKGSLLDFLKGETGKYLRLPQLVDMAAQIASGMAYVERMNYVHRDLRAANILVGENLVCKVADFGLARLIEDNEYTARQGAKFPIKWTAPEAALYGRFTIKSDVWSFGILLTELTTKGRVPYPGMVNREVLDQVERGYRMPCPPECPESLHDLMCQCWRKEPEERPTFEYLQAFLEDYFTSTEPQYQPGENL

Cc1ccc(O)cc1-n1nc2c(c1N)c(=O)[nH]c1ccccc12 [Example 37, 3-amino-2-(5-hydroxy-2-methylphenyl)-2,5-dihydro-4H-pyrazolo[4,3-c]quinolin-4-one]
IC50: ~1 nM

Nc1c2c(=O)[nH]c3ccccc3c2nn1-c1cc(O)ccc1Cl [Example 38, 3-amino-2-(2-chloro-5-hydroxyphenyl)-2,5-dihydro-4H-pyrazolo[4,3-c]quinolin-4-one]
IC50: ~1 nM

Nc1c2c(=O)[nH]c3cc(NCCCN4CCC(O)CC4)ccc3c2nn1-c1cccc(O)c1 [Example 61, 3-amino-2-(3-hydroxyphenyl)-7-{[3-(4-hydroxy-1-piperidinyl)propyl]amino}-2,5-dihydro-4H-pyrazolo[4,3-c]quinolin-4-one]
IC50: ~1 nM

Nc1c2c(=O)[nH]c3cc(NCCCN4CCOCC4)ccc3c2nn1-c1cccc(O)c1 [Example 62, 3-amino-2-(3-hydroxyphenyl)-7-{[3-(4-morpholinyl)propyl]amino}-2,5-dihydro-4H-pyrazolo[4,3-c]quinolin-4-one]
IC50: ~1 nM
